This is an account of results in PMC6752049 (Insect biochemistry and molecular biology, 2019).

Assay in all cases: two-electrode voltage clamp, Xenopus oocytes
Assay type in all cases: cell-based
(In general: Two-electrode voltage clamp holds a large cell at a set potential and records current.)

One assay concerns the target T1, AgamOR40 (Anopheles gambiae, UniProt Q7PR01).
T1 sequence (Q7PR01 1-454): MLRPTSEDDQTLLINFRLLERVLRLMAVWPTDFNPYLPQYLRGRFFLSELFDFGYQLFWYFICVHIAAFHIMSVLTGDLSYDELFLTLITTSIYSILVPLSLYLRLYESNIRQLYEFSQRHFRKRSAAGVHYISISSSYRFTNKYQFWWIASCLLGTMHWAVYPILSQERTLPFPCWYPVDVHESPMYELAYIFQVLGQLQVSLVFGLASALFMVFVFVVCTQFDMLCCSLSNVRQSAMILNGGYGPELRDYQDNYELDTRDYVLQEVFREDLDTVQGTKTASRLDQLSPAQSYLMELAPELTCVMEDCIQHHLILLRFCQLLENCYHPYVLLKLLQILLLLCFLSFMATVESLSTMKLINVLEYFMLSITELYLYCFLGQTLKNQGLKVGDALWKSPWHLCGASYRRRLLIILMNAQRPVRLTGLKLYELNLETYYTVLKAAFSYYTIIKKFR
T1 sequence (Q7QCC7 1-478 partner): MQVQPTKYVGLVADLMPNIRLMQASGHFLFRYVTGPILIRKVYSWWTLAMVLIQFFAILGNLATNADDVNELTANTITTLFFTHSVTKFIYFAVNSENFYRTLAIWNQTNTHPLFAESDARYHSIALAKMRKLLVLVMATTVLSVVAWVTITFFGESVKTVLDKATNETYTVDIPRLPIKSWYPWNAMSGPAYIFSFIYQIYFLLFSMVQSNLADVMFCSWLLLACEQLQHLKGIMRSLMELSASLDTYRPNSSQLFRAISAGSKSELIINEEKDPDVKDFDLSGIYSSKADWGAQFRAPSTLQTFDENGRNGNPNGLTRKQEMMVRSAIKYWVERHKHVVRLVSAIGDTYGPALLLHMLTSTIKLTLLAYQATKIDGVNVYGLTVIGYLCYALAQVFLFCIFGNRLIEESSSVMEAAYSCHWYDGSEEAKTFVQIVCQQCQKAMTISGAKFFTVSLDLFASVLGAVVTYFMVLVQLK
The conditions noted are these: 0.01-1 mM; -80 mV, pH 7.4; inward current (agonist).

Another assay concerns the target T2, AgamOR8 (Anopheles gambiae, UniProt Q7PUT5).
T2 sequence (Q7PUT5 1-399): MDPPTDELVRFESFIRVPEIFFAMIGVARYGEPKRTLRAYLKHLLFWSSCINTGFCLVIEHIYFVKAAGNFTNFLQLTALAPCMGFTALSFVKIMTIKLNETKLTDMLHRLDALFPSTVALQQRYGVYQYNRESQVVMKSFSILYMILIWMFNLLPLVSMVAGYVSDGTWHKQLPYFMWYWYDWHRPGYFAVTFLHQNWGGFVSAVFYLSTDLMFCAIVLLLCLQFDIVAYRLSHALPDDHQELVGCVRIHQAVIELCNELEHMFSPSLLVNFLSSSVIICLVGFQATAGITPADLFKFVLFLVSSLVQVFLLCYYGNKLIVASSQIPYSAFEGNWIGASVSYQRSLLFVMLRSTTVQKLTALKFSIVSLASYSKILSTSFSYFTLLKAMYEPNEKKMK
T2 sequence (Q7QCC7 1-478 partner): T1 sequence (Q7QCC7 1-478 partner)
The conditions noted are these: 0.1 uM to 0.1 mM; -80 mV, pH 7.4; inward current (agonist).

For the next assay, the target named is T3, AgamOR10/AgamOrco (Anopheles gambiae, UniProt B5U0U7).
T3 sequence (B5U0U7 1-375): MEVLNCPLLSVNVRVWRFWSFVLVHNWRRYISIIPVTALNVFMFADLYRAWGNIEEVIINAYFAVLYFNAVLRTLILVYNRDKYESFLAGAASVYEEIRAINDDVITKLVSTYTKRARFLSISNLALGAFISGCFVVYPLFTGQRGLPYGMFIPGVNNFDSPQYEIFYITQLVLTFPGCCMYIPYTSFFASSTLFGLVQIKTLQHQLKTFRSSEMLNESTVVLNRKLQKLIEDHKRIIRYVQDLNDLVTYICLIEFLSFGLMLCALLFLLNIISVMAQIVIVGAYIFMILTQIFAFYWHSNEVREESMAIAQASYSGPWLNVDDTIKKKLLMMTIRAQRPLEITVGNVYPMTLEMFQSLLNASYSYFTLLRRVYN
T3 sequence (Q7QCC7 1-478 partner): T1 sequence (Q7QCC7 1-478 partner)
The settings on record: 0.01-1 mM; -80 mV, pH 7.4; outward (inhibitory) current.

As to `CC12CCC(C1)C(C)(C)C2=O` (stereo not shown) [fenchone], the “two-electrode voltage clamp, Xenopus oocytes” value (shortened to “two-electrode voltage clamp”) at AgamOR40 is reported as “generated dose-dependent inward currents in response to DEET as well as to its best ligand, fenchone”.
Consider `C=CC(O)CCCCC` (stereo not shown) [1-octen-3-ol], for which the “two-electrode voltage clamp” value on AgamOR8 was “generated robust, dose-dependent inward currents in response to 1-octen-3-ol”.
In the case of `CC/C=C\C[C@H]1C(=O)CC[C@@H]1CC(=O)OC` [BDR-4, methyl jasmonate], the “two-electrode voltage clamp” value on AgamOR10/AgamOrco is given as “The strongest outward currents were obtained with BDR-4 (methyl jasmonate)”.
Regarding `CCN(CC)C(=O)c1cccc(C)c1` [DEET], the “two-electrode voltage clamp” value at AgamOR40 was “generated dose-dependent inward currents in response to DEET as well as to its best ligand, fenchone”.
